PubChem BioAssay (NCI)
Several values for one entry are separate records, joined by “and”; a condition that tells them apart may be missing. Equal values may be shown once.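 Assay format: 96-well plates, 48-hour exposure. GI50 marks 50% less growth. TGI: total growth inhibition.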

Columns and labels:
Assay in all cases: NCI-60 cell line screen, 48 h
MALME-3M melanoma = system: MALME-3M melanoma
OVCAR-5 ovarian = system: OVCAR-5 ovarian
HS 578T breast = system: HS 578T breast
EKVX NSCLC = system: EKVX NSCLC
OVCAR-8 ovarian = system: OVCAR-8 ovarian
NCI/ADR-RES ovarian = system: NCI/ADR-RES ovarian
DU-145 prostate = system: DU-145 prostate
NCI-H226 lung = system: NCI-H226 lung
OVCAR-3 ovarian = system: OVCAR-3 ovarian
UO-31 renal = system: UO-31 renal

| Compound | GI50 (MALME-3M melanoma) | TGI (MALME-3M melanoma) | GI50 (OVCAR-5 ovarian) | TGI (OVCAR-5 ovarian) | GI50 (HS 578T breast) | TGI (HS 578T breast) | GI50 (EKVX NSCLC) | TGI (EKVX NSCLC) | GI50 (OVCAR-8 ovarian) | TGI (OVCAR-8 ovarian) | GI50 (NCI/ADR-RES ovarian) | TGI (NCI/ADR-RES ovarian) | GI50 (DU-145 prostate) | TGI (DU-145 prostate) | GI50 (NCI-H226 lung) | TGI (NCI-H226 lung) | GI50 (OVCAR-3 ovarian) | TGI (OVCAR-3 ovarian) | GI50 (UO-31 renal) | TGI (UO-31 renal) |
| --- | --- | --- | --- | --- | --- | --- | --- | --- | --- | --- | --- | --- | --- | --- | --- | --- | --- | --- | --- | --- |
| CCCn1c(C)nc2c1C(=O)c1ccccc1C2=O | 2.71 µM | 9.35 µM | > 100 µM | > 100 µM | 17.8 µM | > 100 µM | 18.9 µM | 70.8 µM | 31.8 µM | > 100 µM | 22.9 µM | > 100 µM | 23.5 µM | > 100 µM | 57.3 µM | > 100 µM | 11.6 µM | 39.2 µM | 9.06 µM | 60.8 µM |
| COC(=O)Cn1c2c(c3c(O)cccc31)C(=O)c1ccccc1-2 | > 100 µM | > 100 µM | > 100 µM | > 100 µM | > 100 µM | > 100 µM | > 100 µM | > 100 µM | > 100 µM | > 100 µM | > 100 µM | > 100 µM | > 100 µM | > 100 µM | > 100 µM | > 100 µM | > 100 µM | > 100 µM | > 100 µM | > 100 µM |
| O=C(N/N=C/c1ccc2c(c1)CCC2)c1ccccc1O |  | 61.5 µM |  | > 100 µM |  | 71 µM |  | 92.2 µM |  | 71.9 µM |  | 73.8 µM |  | > 100 µM |  | 77.7 µM |  | 41.5 µM |  | 94.6 µM |
| O=C(/C(=C/c1ccccc1)CN1CCCCC1)c1ccccc1 | 1.16 µM | 3.58 µM | 1.98 µM | 3.98 µM | 5.03 µM | 65.6 µM | 2.51 µM | 9.23 µM | 0.616 µM | 4.29 µM | 1.06 µM | 4.64 µM | 1.52 µM | 5.78 µM | 1.53 µM | 3.82 µM | 0.679 µM | 2.16 µM | 0.996 µM | 2.3 µM |
| CN(C)c1ccc2c(c1)Sc1cc(N(C)C)ccc1N2C(=O)c1ccccc1 | 21.4 µM | 77.1 µM | > 100 µM | > 100 µM | 10.8 µM | 57.4 µM | 13.2 µM | > 100 µM | 50.3 µM | > 100 µM | 33.7 µM | > 100 µM | > 100 µM | > 100 µM | 71.6 µM | > 100 µM | 25.7 µM | > 100 µM | 8.23 µM | > 100 µM |
| C=CCOC1OC(CO[Si](C)(C)C(C)(C)C)C(OCc2ccccc2)C(OCc2ccccc2)C1OCc1ccccc1 (stereo not given) |  | > 100 µM |  | > 100 µM |  | > 100 µM |  | > 100 µM |  | > 100 µM |  | > 100 µM |  | > 100 µM |  | > 100 µM |  | > 100 µM |  | > 100 µM |
| O=S(=O)(NCCNC/C=C/c1ccc(Br)cc1)c1cccc2cnccc12 | 7.39 µM and 12.7 µM | 23 µM and 26.9 µM | 13.4 µM and 12.9 µM | 27.5 µM and 28 µM | 4.62 µM and 12 µM | 42 µM and 51.9 µM | 5.25 µM and 6.38 µM | 22.9 µM and 20.5 µM | 13 µM and 15.6 µM | 28.5 µM and 32.3 µM | 12.3 µM and 14.3 µM | 28.8 µM and 32.3 µM | 12.4 µM and 14.5 µM | 25.1 µM and 27.6 µM | 12.3 µM and 13.7 µM | 30.7 µM and 34.5 µM | 12 µM and 14.2 µM | 24.6 µM and 28.3 µM | 4.8 µM and 5.17 µM | 18.4 µM and 20.2 µM |
| Cc1ccc(C(=O)Nc2ccc(CN3CCN(C)CC3)c(C(F)(F)F)c2)cc1C#Cc1cnc2cccnn12 | 0.474 µM | 2.86 µM | 0.41 µM and 0.808 µM | 1.64 µM and 4.69 µM | 0.364 µM and 0.544 µM | 2.52 µM | 0.635 µM and 1.79 µM | 2.27 µM and 5.14 µM | 0.367 µM and 1.08 µM | 1.46 µM and 3.75 µM | 0.387 µM and 1.03 µM | 2.15 µM and 4.54 µM | 0.423 µM and 0.712 µM | 1.57 µM and 3.72 µM | 0.298 µM | 4.41 µM | 0.785 µM and 1.36 µM | 2.07 µM and 4.2 µM | 0.34 µM and 0.349 µM | 1.52 µM and 3.19 µM |
| Cc1cc(N/N=C/c2nc(-c3ccc(Br)cc3)oc2C)c2cc(Cl)ccc2n1 | > 100 µM | > 100 µM | > 100 µM | > 100 µM | > 100 µM | > 100 µM | > 100 µM | > 100 µM | > 100 µM | > 100 µM | > 100 µM | > 100 µM | > 100 µM | > 100 µM | > 100 µM | > 100 µM | > 100 µM | > 100 µM | > 100 µM | > 100 µM |
| c1ccc2c(c1)c(NCCCCN1CCCCC1)cc1c3ccccc3c(NCCCCN3CCCCC3)cc21 | 12.9 µM | 38.7 µM | 24.3 µM | 48.9 µM | 27.5 µM | 68.6 µM | 19.9 µM | 42 µM | 21.2 µM | 47.2 µM | 16.6 µM | 38.4 µM | 16.3 µM | 46.2 µM | 20.9 µM | 54.9 µM | 19.5 µM | 87.2 µM | 28.7 µM | > 100 µM |
| CCN1CCC(CCOC)(CN2c3ccccc3Sc3ccc(Cl)cc32)C1 (stereo not given) | 1.91 µM | 3.6 µM | 1.83 µM | 3.88 µM | 2.12 µM | 6.55 µM | 2.04 µM | 5.91 µM | 2.07 µM | 4.14 µM | 1.73 µM | 3.89 µM | 1.92 µM | 3.68 µM | 1.92 µM | 4.67 µM | 1.88 µM | 4.1 µM | 1.66 µM | 3.63 µM |
| COc1ccc2cc(-c3ccoc(=O)c3-c3cc(OC)c(OC)c(OC)c3)ccc2c1 | > 100 µM | > 100 µM | 0.369 µM | > 100 µM | 0.134 µM | > 100 µM | 0.566 µM | > 100 µM | 0.334 µM | > 100 µM | 0.0528 µM | > 100 µM | 0.188 µM | > 100 µM | 6.69 µM | > 100 µM | 0.0316 µM | > 100 µM | 0.1 µM | > 100 µM |
| CNC(=O)OCc1c(COC(=O)NC)c(C)n(-c2ccc(Br)cc2)c1C |  | 36.3 µM |  | 77.2 µM |  | 33.5 µM |  | > 100 µM |  | 24.8 µM |  | 34.9 µM |  | 36.2 µM |  | 4.59 µM |  | 30.4 µM |  | 19.5 µM |
